System: bone marrow-derived stem cells (MSCs)
Assay: culture of bone marrow-derived stem cells (MSCs) with cartilage fragments, with or without TGF-β1
Assay type: cell-based, horse
Method: Bone marrow aspirates were obtained from the tuber coxae of 3 normal horses (3-years-old) to attain bone marrow-derived stem cells (MSCs). Aspirates were cultured in media, pre-plated for purification, and grown in monolayer culture flasks for 2-3 weeks until a confluent monolayer culture of MSCs was obtained. Confluent monolayers were expanded for another 2-3 weeks until a minimum of 26×10^6 cells were attained.
Cartilage was collected sterilely from the same horses and freeze-thawed 3 times to ensure all native cells within the cartilage were dead. Prior to the start of the experiment the cartilage was placed in liquid nitrogen and pulverized until it became a fine powder. Then the cartilage was weighed into aliquots to make 2.5% and 10% of cartilage weight to volume in media.
A 24-well, non-adherent plate contained treatment groups of 1×10^6 cells only, 1×10^6 cells with 2.5% cartilage, 1×10^6 cells with 10% cartilage, 2.5% cartilage only, and 10% cartilage only to make 5 treatment groups. The cells-only treatment group was the baseline positive control. The 2.5% and 10% cartilage fragments without cells served as the negative controls and, if necessary, for baseline values of proteoglycan and DNA content of the matrix provided. […]

TGF-β1: transforming growth factor β type 1, growth factor supplemented to media at 5 ng/ml
MSC survival and chondrogenesis: necessary | DNA content by day 14 (day 14, 5 ng/ml TGF-β1): significantly increasing
